The results in this text go back to patent publication US12576163B2, “Fluorescent contrast agent with targeting function, and preparation method and use thereof” (priority 2022, dated 2026).

Series [1] is described as follows: UV-VIS and fluorescence spectroscopy. It is filed as physicochemical. To be noted: UV-VIS spectrum. As for the experimental part:
A size of the contrast agent was detected with the Zetasizer nano-ZS. 10 μL of each of MR780 NPs, FITC-MR780 NPs, and FITC-DSPC NPs was taken and added dropwise on a mesh, air-dried, stained with phosphotungstic acid (10 μL, 3.0%), then washed with deionized water, and air-dried. Morphological images of the mannose contrast agents were acquired through high-resolution transmission electron microscopy (HRTEM). Since MR780 NPs need to emit reduced glutathione-responsive fluorescence in a tumor microenvironment, it must be ensured that MR780 NPs can stably restore the fluorescence signal after reacting with reduced glutathione. 10 μL of MR780 NPs was thoroughly mixed with 10 mM reduced glutathione, and a resulting mixture was shaken at room temperature in the dark; and the fluorescence restoration of MR780 NPs in each group was tested at 10 min, 1 h, 2 h, and 4 h. The UV-VIS spectroscopy and fluorescence spectroscopy were conducted respectively on a UV-VIS spectrophotometer and a fluorescence spectrophotometer.

In series [2] the test system is induced RAW264.7 cells (CD206). To be noted: pre-blocking 2 h at 10-100 mg/mL, then FITC-MR780 NPs 40 μg/mL 2 h; FCM.
Experimental: After 2 h of co-incubation, the DMEM was changed, FITC-MR780 NPs 40 μg/mL was added in each group, and then co-incubation was conducted for 2 h. A fluorescence signal of FITC in cells of each group was determined by FCM.
2 h before the blocking experiment, free mannose was added in advance at different concentrations, then FITC-MR780 NPs were added, and then co-incubation was conducted for 2 h. An intracellular fluorescence intensity of FITC was determined by FCM.
For series [3], the system named is CD206 on a surface of RAW264.7 cells. The series can be described thus: Induction of macrophage differentiation, CD206 expression by FCM. In kind it is cell-based, mouse. To be noted: 24 h with inducer (IL-4 20 ng/mL; LPS 100 ng/mL). As for the experimental part:
RAW264.7 cells at a logarithmic growth phase were plated in a 6-well plate at a density of 1×10^5 cells/mL, then a DMEM was added at 2 mL/well, the plate was incubated overnight, and then interleukin-4 (IL-4) was added to the culture at a final concentration of 20 ng/mL. The IL-4 was an M2 macrophage inducer. In a control group, an M1 macrophage inducer lipopolysaccharide (LPS) was added to the culture at a final concentration of 100 ng/mL and then incubated for 24 h.
The expression of CD206 on a surface of RAW264.7 cells before and after induction was determined by FCM. Cells were digested and centrifuged, 0.5 μg of mouse CD16/32 monoclonal antibody (mAb) was added, and a resulting mixture was incubated at room temperature for 10 min. Then 0.5 mL of a 1× fixation buffer was added, a resulting mixture was incubated in the dark for 20 min and then centrifuged at 350 g for 5 min, and a resulting supernatant was discarded. 2 mL of a membrane disruption solution was added, and a resulting suspension was centrifuged at 350 g for 5 min; and the operation was repeated once. […] 200 μL of PBS was added to resuspend the cells, and the expression of CD206 on a cell surface in each of the two groups was detected by FCM.

`CCCN1/C(=C/C=C2\CCCC(/C=C/C3=[N+](CCC)c4ccccc4C3(C)C)=C2Cl)C(C)(C)c2ccccc21.[I-]` [IR780]: the “UV-VIS maximum absorbance / maximum absorption peak” value in series [1] was 780 nm.

`Nc1ccc(O[C@H]2O[C@H](CO)[C@@H](O)[C@H](O)[C@@H]2O)cc1` [free mannose, 4-aminophenyl-α-D-mannopyranoside]: in series [2], the “phagocytosis of cells for FITC-MR780 NPs after pre-blocking” value is reported as “decreases significantly”.

B1: IL-4: interleukin-4, M2 macrophage inducer (protein, UniProt P05112 25-153, looked up)
Interleukin-4: HKCDITLQEIIKTLNSLTEQKTLCTELTVTDIFAASKNTTEKETFCRAATVLRQFYSHHEKDTRCLGATAQQFHRHKQLIRFLKRLDRNLWGLAGLNSCPVKEANQSTLENFLERLKTIMREKYSKCSS
Consider B1, for which the “expression of CD206” value in series [3] was determined as 81.22±0.64%.
